Measured values taken from patent US20050026987A1, “CBI analogues of the duocarmycins and CC-1065” (The Scripps Research Institute, priority 2003, published 2005).
Several values for one entry are separate records, joined by “and”; a condition that tells them apart may be missing. Equal values may be shown once. Read-outs that look alike come from different tables or passages of the source.

How the values were obtained:
L1210 [1] = test: L1210 cytotoxic potency; conditions: for distinction NO2 versus OMe substituent (more potent than corresponding methoxy derivative): C5, C6, C7 nitro vs corresponding methoxy; for fold less potent than C5 acyl derivative 54: 52: versus the C5 acyl derivatives, 62: versus 54
L1210 [2] = conditions: cited from earlier work
w794 DNA = test: DNA alkylation selectivity, efficiency and rate in w794 DNA; type: biochemical
[3] = relative to (+)-CBI-indole (R=H)
[4] = read-out: IC50 (cytotoxic potency), L1210
[5] = Mus musculus, L1210, read-out: IC50 (cytotoxic potency)
[6] = relative to CBI-TMI, IC50=30 pM

O=C1C=C2N(C(=O)c3cc4c(ccc5ccccc54)[nH]3)C[C@H]3C[C@@]23c2ccccc21 [(+)-77, N^2-[(Benz[e]indole-2-yl)carbonyl]-1,2,9,9a-tetrahydrocyclopropa[c]benz[e]indol-4-one]
reduction in potency relative to the fused pyrrole 69 or the fused furan 71 (L1210 [1]): 6-8 fold
reduction in cytotoxic potency compared to (+)-CBI-indole (L1210 [1]; [3]): 2 fold

O=C1C=C2N(C(=O)c3cc4cc5ccccc5cc4[nH]3)C[C@@H]3C[C@]23c2ccccc21 [(+)-78, N^2-[(Benz[f]indole-2-yl)carbonyl]-1,2,9,9a-tetrahydrocyclopropa[c]benz[e]indol-4-one]
increase in cytotoxic potency over (+)-CBI-indole (5) (L1210 [1]; [3]): 5 fold

NC(=O)N1CCc2c1ccc1[nH]c(C(=O)N3C[C@H]4C[C@@]45C3=CC(=O)c3ccccc35)cc21 [(+)-CBI-CDPI1]
IC50 (L1210 [2]; disclosed in prior studies (J. Org. Chem. 1996, 61, 4894), read-out: IC50 (cytotoxic potency), prior studies): 5 pM

COc1cc2cc(C(=O)N3CC4CC45C3=CC(=O)c3ccccc35)[nH]c2c(OC)c1OC (stereo not drawn) [CBI-TMI, reference compound]
IC50 (L1210 [1]; [4]): 30 pM
increase in cytotoxic potency over (+)-CBI-indole (5) (L1210 [1]; [3]): ~100 fold and 90 fold

COc1c(O)c2c(c3cc(C(=O)N4CCc5c4c(O)c(OC)c4[nH]c(C(=O)N6CC7CC78C6=CC(=O)c6[nH]cc(C)c68)cc54)[nH]c13)CCN2C(N)=O (stereo not drawn) [CC-1065]
IC50 (L1210 [1]; [5]): 20 pM

O=C1C=C2N(C(=O)c3cc4ccccc4[nH]3)CC3CC23c2ccccc21 [compound 5, N^2-[(Indole-2-yl)carbonyl]-(8bR,9aS)-1,2,9,9a-tetrahydrocyclopropa[c]benz[e]indol-4-one, reference compound]
IC50 (L1210 [1]; [4]): 50 pM

COc1cccc2[nH]c(C(=O)N3C[C@H]4C[C@@]45C3=CC(=O)c3ccccc35)cc12 [compound 6, N^2-[(4-Methoxyindole-2-yl)carbonyl]-(8bR,9aS)-1,2,9,9a-tetrahydrocyclopropa[c]benz[e]indol-4-one]
increase in cytotoxic potency over (+)-CBI-indole (5) (L1210 [1]; [3]): 4 fold
decrease in cytotoxic potency compared with CBI-TMI (4) (L1210 [1]; [6]): 17 fold and 16-17 fold

COc1ccc2[nH]c(C(=O)N3C[C@H]4C[C@@]45C3=CC(=O)c3ccccc35)cc2c1 [compound 7, N^2-[(5-Methoxyindole-2-yl)carbonyl]-(8bR,9aS)-1,2,9,9a-tetrahydrocyclopropa[c]benz[e]indol-4-one]
IC50 (L1210 [1]; [4]): 50 pM
decrease in cytotoxic potency compared with CBI-TMI (4) (L1210 [1]; [6]): 1.6 fold

COc1ccc2[nH]c(C(=O)N3CC4CC45C3=CC(=O)c3ccccc35)cc2c1OC [compound 10, N^2-[(4,5-Dimethoxyindole-2-yl)carbonyl]-(8bR,9aS)-1,2,9,9a-tetrahydrocyclopropa[c]benz[e]indol-4-one]
relative cytotoxic potency in words (L1210 [1]): much less active

COc1ccc2cc(C(=O)N3CC4CC45C3=CC(=O)c3ccccc35)[nH]c2c1OC [compound 12, N^2-[(6,7-Dimethoxyindole-2-yl)carbonyl]-(8bR,9aS)-1,2,9,9a-tetrahydrocyclopropa[c]benz[e]indol-4-one]
decrease in cytotoxic potency compared with CBI-TMI (4) (L1210 [1]; [6]): 6.6 fold

CCOc1ccc2[nH]c(C(=O)N3CC4CC45C3=CC(=O)c3ccccc35)cc2c1 [compound 15, N^2-[(5-Ethoxyindole-2-yl)carbonyl]-(8bR,9aS)-1,2,9,9a-tetrahydrocyclopropa[c]benz[e]indol-4-one]
additional increase in cytotoxic potency versus C5 methoxy (L1210 [1]; C5 alkyl ethers relative to C5 OMe): 5 fold
IC50 (L1210 [1]; [4]): 10 pM

CSc1ccc2[nH]c(C(=O)N3CC4CC45C3=CC(=O)c3ccccc35)cc2c1 [compound 21, N^2-[(5-Thiomethylindole-2-yl)carbonyl]-(8bR,9aS)-1,2,9,9a-tetrahydrocyclopropa[c]benz-[e]indol-4-one]
IC50 (L1210 [1]; [4]): 50 pM

CCSc1ccc2[nH]c(C(=O)N3CC4CC45C3=CC(=O)c3ccccc35)cc2c1 [compound 23, N^2-[(5-Thioethylindole-2-yl)carbonyl]-(8bR,9aS)-1,2,9,9a-tetrahydrocyclopropa[c]benz[e]indol-4-one]
IC50 (L1210 [1]; [4]): 100 pM

Cc1ccc2[nH]c(C(=O)N3C[C@H]4C[C@@]45C3=CC(=O)c3ccccc35)cc2c1 [compound 24, N^2-[(5-Methylindole-2-yl)carbonyl]-(8bR,9aS)-1,2,9,9a-tetrahydrocyclopropa[c]benz[e]in-dol-4-one]
IC50 (L1210 [1]; [4]): 2000 pM

CCc1ccc2[nH]c(C(=O)N3CC4CC45C3=CC(=O)c3ccccc35)cc2c1 [compound 25, N^2-[(5-Ethylindole-2-yl)carbonyl]-(8bR,9aS)-1,2,9,9a-tetrahydrocyclopropa[c]benz[e]indol-4-one]
IC50 (L1210 [1]; [4]): 2000 pM

N#Cc1ccc2[nH]c(C(=O)N3CC4CC45C3=CC(=O)c3ccccc35)cc2c1 [compound 31, N^2-[(5-Cyanoindole-2-yl)carbonyl]-(8bR,9aS)-1,2,9,9a-tetrahydrocyclopropa[c]benz[e]in-dol-4-one]
IC50 (L1210 [1]; [4]): 30 pM

O=C(c1cc2cc([N+](=O)[O-])ccc2[nH]1)N1C[C@@H](CCl)c2c1cc(O)c1ccccc21 [compound 49, 3-(5-Nitroindole-2-carbonyl)-1-(S)-(chloromethyl)-5-hydroxy-1,2-dihydro-3H-benz[e]indole]
distinction NO2 versus OMe substituent (more potent than corresponding methoxy derivative) (L1210 [1]): 2.5 ×
IC50 (L1210 [1]; [5]): 20 pM

O=C(c1cc2ccc([N+](=O)[O-])cc2[nH]1)N1C[C@@H](CCl)c2c1cc(O)c1ccccc21 [compound 50, 3-(6-Nitroindole-2-carbonyl)-1-(S)-(chloromethyl)-5-hydroxy-1,2-dihydro-3H-benz[e]indole]
distinction NO2 versus OMe substituent (more potent than corresponding methoxy derivative) (L1210 [1]): 5 ×

O=C(c1cc2cccc([N+](=O)[O-])c2[nH]1)N1C[C@@H](CCl)c2c1cc(O)c1ccccc21 [compound 51, 3-(7-Nitroindole-2-carbonyl)-1-(S)-(chloromethyl)-5-hydroxy-1,2-dihydro-3H-benz[e]indole]
distinction NO2 versus OMe substituent (more potent than corresponding methoxy derivative) (L1210 [1]): 1.5 ×

O=Cc1ccc2[nH]c(C(=O)N3C[C@@H](CCl)c4c3cc(O)c3ccccc43)cc2c1 [compound 52, 3-(5-Formylindole-2-carbonyl)-1-(S)-(chloromethyl)-5-hydroxy-1,2-dihydro-3H-benz[e]indole]
fold less potent than C5 acyl derivative 54 (L1210 [1]): 50 fold

CC(=O)c1ccc2[nH]c(C(=O)N3C[C@H]4C[C@@]45C3=CC(=O)c3ccccc35)cc2c1 [compound 54, N^2-[(5-Acetylindole-2-yl)carbonyl]-(8bR,9aS)-1,2,9,9a-tetrahydrocyclopropa[c]benz[e]in-dol-4-one]
DNA alkylation selectivity (w794 DNA): no alterations in the inherent DNA alkylation selectivity
rate and efficiency of DNA alkylation (w794 DNA): enhanced rate and efficiency of DNA alkylation
increase in cytotoxic potency over (+)-CBI-indole (5) (L1210 [1]; [3]): 1000 fold

CCC(=O)c1ccc2[nH]c(C(=O)N3CC4CC45C3=CC(=O)c3ccccc35)cc2c1 [compound 56, N^2-[(5-Propionylindole-2-yl)carbonyl]-(8bR,9aS)-1,2,9,9a-tetrahydrocyclopropa[c]benz[e]-indol-4-one]
increase in cytotoxic potency over (+)-CBI-indole (5) (L1210 [1]; [3]): 1000 fold

CCCC(=O)c1ccc2[nH]c(C(=O)N3C[C@H]4C[C@@]45C3=CC(=O)c3ccccc35)cc2c1 [compound 57, N^2-[(5-Butyrylindole-2-yl)carbonyl]-(8bR,9aS)-1,2,9,9a-tetrahydrocyclopropa[c]benz[e]indol-4-one]
IC50 (L1210 [1]; [4]): 20 pM

CNC(=O)c1ccc2[nH]c(C(=O)N3C[C@@H](CCl)c4c3cc(O)c3ccccc43)cc2c1 [compound 62, 3-(5-Methylcarbamoylindole-2-carbonyl)-1-(S)-(chloromethyl)-5-hydroxy-1,2-dihydro-3H-benz[e]indole]
fold less potent than C5 acyl derivative 54 (L1210 [1]): 5 fold
fold more potent than (+)-CBI-TMI (L1210 [1]; [6]): 3 fold

CS(=O)(=O)c1ccc2[nH]c(C(=O)N3C[C@@H](CCl)c4c3cc(O)c3ccccc43)cc2c1 [compound 64, 3-(5-Methylsulfonylindole-2-carbonyl)-1-(S)-(chloromethyl)-5-hydroxy-1,2-dihydro-3H-benz[e]indole]
IC50 (L1210 [1]; [5]): 3 pM
increase in cytotoxic potency over (+)-CBI-indole (5) (L1210 [1]; [3]): 1000 fold

CCS(=O)(=O)c1ccc2[nH]c(C(=O)N3C[C@@H](CCl)c4c3cc(O)c3ccccc43)cc2c1 [compound 65, 3-(5-Ethylsulfonylindole-2-carbonyl)-1-(S)-(chloromethyl)-5-hydroxy-1,2-dihydro-3H-benz[e]indole]
IC50 (L1210 [1]; [5]): 40 pM

O=C1C=C2N(C(=O)c3cc4c5c(ccc4[nH]3)OCC5)CC3CC23c2ccccc21 [compound 70, N^2-[(1,2-Dihydropyrrolo[3,2-e]benzofuran-7-yl)carbonyl]-(8bR,9aS)-1,2,9,9a-tetrahydro-cyclopropa[c]benz[e]indol-4-one]
relative cytotoxic potency in words (L1210 [1]): slightly more potent than 7

O=C1CCc2c1ccc1[nH]c(C(=O)N3C[C@@H](CCl)c4c3cc(O)c3ccccc43)cc21 [compound 72, 3-(6-Oxo-cyclopenten[e]indole-2-carbonyl)-1-(S)-(chloromethyl)-5-hydroxy-1,2-dihydro-3H-benz[e]indole]
relative cytotoxic potency in words (L1210 [1]): matched the potency of the C5 substituted methyl and ethyl ketones 54 and 56

O=C(C1Oc2ccc3[nH]ccc3c2O1)N1C[C@@H](CCl)c2c1cc(O)c1ccccc21 (stereo partly drawn) [compound 74, 3-([1,3]Dioxolo[e]indole-2-carbonyl)-1-(S)-(chloromethyl)-5-hydroxy-1,2-dihydro-3H-benz[e]indole]
relative cytotoxic potency in words (L1210 [1]): much more active than the corresponding unconstrained 4,5 dimethoxy derivative 10

O=C1C=C2N(C(=O)c3cc4cc5c(cc4[nH]3)OCO5)C[C@H]3C[C@@]23c2ccccc21 [compound 75, N^2-[([1,3]Dioxolo[f]indole-2-yl)carbonyl]-(8bR,9aS)-1,2,9,9a-tetrahydrocyclopropa[c]-benz[e]indol-4-one]
relative cytotoxic potency in words (L1210 [1]): substantially less potent than the corresponding unconstrained C5,6 dimethoxy derivative 11

COC(=O)c1cc2c([nH]1)C(=O)C=C1N(C(=O)c3cc4cc(OC)c(OC)c(OC)c4[nH]3)CC3CC123 (stereo not drawn) [duocarmycin SA, reference compound]
effect of 5,6,7-trimethoxy substitution / removal of TMI methoxy substituents on cytotoxic potency (L1210 [2]; literature comparison series): 6.5-10 fold
IC50 (L1210 [1]; [5]): 6 to 10 pM
